Key:
[1] = molecular target: T1, Bromodomain-containing protein 4 (Homo sapiens, UniProt O60885); assay: Inhibition of recombinant human BRD4-2 (333 to 460 residues) expressed in bacterial expression system by bromoscan assay
[2] = molecular target: T1, Bromodomain-containing protein 4; assay: Binding affinity to BRD4-T (unknown origin)
[3] = molecular target: T2, Bromodomain testis-specific protein (Homo sapiens, UniProt Q58F21); assay: Inhibition of recombinant human BRDT-1 (21 to 137 residues) expressed in bacterial expression system by bromoscan assay
[4] = molecular target: T2, Bromodomain testis-specific protein; assay: Inhibition of recombinant human BRDT-2 (250 to 382 residues) expressed in bacterial expression system by bromoscan assay
[5] = molecular target: T2, Bromodomain testis-specific protein; assay: Binding affinity to N-terminal hexa-histidine tagged BRDT-T (2 to 416 residues) (unknown origin) expressed in Escherichia coli BL21(DE3) cells
MM1.S = assay: Growth inhibition of human MM1.S cells incubated for 72 hrs by CellTiter-Blue assay; type: functional, cell-based
[6] = molecular target: T1, Bromodomain-containing protein 4; assay: Inhibition of recombinant human BRD4-1 (44 to 168 residues) expressed in bacterial expression system by bromoscan assay
[7] = molecular target: T1, Bromodomain-containing protein 4; assay: Inhibition of BRD4 in human MM1.S cells assessed as reduction in c-MYC level after 6 hrs by Western blot analysis; type: cell-based
Homo sapiens = organism: Homo sapiens; assay: Selectivity ratio of Kd for BRD4 (unknown origin) to Kd for BRDT (unknown origin)
[8] = Metabolic stability in pooled mouse liver microsomes assessed as half life; type: ADME, Microsome; details: for t1/2: microsomes; for half-life: pooled mouse liver microsomes
[9] = Metabolic stability in pooled human liver microsomes assessed as half life; type: ADME, Microsome; details: for half-life: pooled human liver microsomes; for t1/2: microsomes
[10] = Permeability in MDCK-MDR1 cells; type: ADME, cell-based, Canis lupus familiaris; details: dog; for Papp: MDCK-MDR1, read-out: permeability

Row | SMILES | Kd [1] | Kd [2] | Kd [3] | Kd [4] | Kd [5] | IC50 (MM1.S) | Kd [6] | IC50 [7] | Selectivity ratio (Homo sapiens) | t1/2 [8] | half-life [9] | half-life [8] | Papp [10] | t1/2 [9] | permeability ([10]; mdck-mdr1)
1 | Cc1cnc(Nc2ccc(C(=O)NC3CCN(C)CC3)c(F)c2)nc1Nc1ccc(Cl)c(NS(=O)(=O)C(C)(C)C)c1 | 20 nM | 6.7 nM | 9.5 nM | 25 nM | 18 nM | 61 nM | – | – | – | – | – | – | – | – | –
2 | Cn1cc(-c2cccc(N3CCCC3=O)c2)c2ccccc2c1=O | – | – | 875 nM | – | – | 58 nM | 335 nM | > 1000 nM | – | – | – | – | – | – | –
3 | Cc1cnc(Nc2ccc(C(=O)NC3CCN(C(=O)COCCOCC(=O)N4CCC(NC(=O)c5ccc(Nc6ncc(C)c(Nc7ccc(Cl)c(NS(=O)(=O)C(C)(C)C)c7)n6)cc5F)CC4)CC3)c(F)c2)nc1Nc1ccc(Cl)c(NS(=O)(=O)C(C)(C)C)c1 | 3.1 nM | 3.6 nM | 0.84 nM | 3.5 nM | 0.59 nM | 44 nM | 4 nM | – | – | – | – | – | – | – | –
4 | Cc1cnc(Nc2ccc(C(=O)NC3CCNCC3)c(F)c2)nc1Nc1cc(NS(=O)(=O)C(C)(C)C)cc(C(=O)NCCOCCOCCOCCC(=O)N2CCC(NC(=O)c3ccc(Nc4ncc(C)c(Nc5ccc(Cl)c(NS(=O)(=O)C(C)(C)C)c5)n4)cc3F)CC2)c1 | 3.2 nM | 1.7 nM | 0.16 nM | 3.1 nM | 1.3 nM | 1100 nM | 6 nM | – | 12 | 55 min | 2.2 min | – | – | – | –
5 | CCS(=O)(=O)Nc1cccc(-c2cn(C)c(=O)c3ccccc23)c1 | – | – | 77 nM | – | – | – | – | – | – | – | < 2.3 min | < 2.3 min | 0.13 ×10⁻⁶ cm/s | – | –
6 | Cc1cnc(Nc2ccc(C(=O)NC3CCN(C(=O)CCOCCOCCOCCOCCOCCC(=O)N4CCC(NC(=O)c5ccc(Nc6ncc(C)c(Nc7ccc(Cl)c(NS(=O)(=O)C(C)(C)C)c7)n6)cc5F)CC4)CC3)c(F)c2)nc1Nc1ccc(Cl)c(NS(=O)(=O)C(C)(C)C)c1 | 1.5 nM | 1.6 nM | 0.6 nM | 2.2 nM | 0.8 nM | 30 nM | 4.6 nM | – | – | 30 min | – | – | – | 10 min | –
7 | Cc1cnc(Nc2ccc(C(=O)NC3CCN(C(=O)CCOCCOCCOCCOCCC(=O)N4CCC(NC(=O)c5ccc(Nc6ncc(C)c(Nc7ccc(Cl)c(NS(=O)(=O)C(C)(C)C)c7)n6)cc5F)CC4)CC3)c(F)c2)nc1Nc1ccc(Cl)c(NS(=O)(=O)C(C)(C)C)c1 | 3 nM | 2.8 nM | 0.92 nM | 1.7 nM | 1.55 nM | 34 nM | 6.4 nM | – | – | 4.1 min | – | – | – | 5.6 min | –
8 | CCS(=O)(=O)Nc1ccc(OCCOCCOCCOCCOc2ccc(NS(=O)(=O)CC)cc2-c2cn(C)c(=O)c3ccccc23)c(-c2cn(C)c(=O)c3ccccc23)c1 | 0.32 nM | 0.29 nM | 0.089 nM | 5.5 nM | 0.058 nM | – | 0.095 nM | – | – | – | 315 min | 11 min | 15 ×10⁻⁶ cm/s | – | –
9 | Cc1cnc(Nc2ccc(C(=O)NC3CCN(C(=O)COCCOCCOCC(=O)N4CCC(NC(=O)c5ccc(Nc6ncc(C)c(Nc7ccc(Cl)c(NS(=O)(=O)C(C)(C)C)c7)n6)cc5F)CC4)CC3)c(F)c2)nc1Nc1ccc(Cl)c(NS(=O)(=O)C(C)(C)C)c1 | 9.1 nM | 4.8 nM | 0.6 nM | 8.4 nM | 2.6 nM | 59 nM | 28 nM | – | – | – | – | – | – | – | –
10 | CCS(=O)(=O)Nc1ccc(Oc2ccc(Cl)cc2)c(-c2cn(C)c(=O)c3ccccc23)c1 | 3.7 nM | 2.3 nM | 5 nM | 12 nM | 6 nM | 8.5 nM | 3.6 nM | – | – | 74 min | – | – | – | 299 min | 2.7 10^-6 cm/s

— ChEMBL document CHEMBL5120946, “Bivalent BET Bromodomain Inhibitors Confer Increased Potency and Selectivity for BRDT via Protein Conformational Plasticity” (J Med Chem, 2022)
